Test results as given in US4347242A, “Hypocalcaemic peptides and process for their manufacture” (Ciba-Geigy Corporation, priority 1978, dated 1982).
“And” between values parts separate entries of the source, which are not always exact repeats. Identical values can stand only once.

Columns and labels:
[1] = system: rat; experiment: rat hypocalcaemic activity test described by Kumar et al, J. Endocrinology 33, page 470 [1965] (MRC units); format: in vivo; settings: per mg of peptide or product
[2] = system: rats; experiment: lowering of plasma calcium and plasma phosphate level in tests on rats weighing 50 to 150 g; format: in vivo, rat
[3] = system: patients with increased bone turn over; experiment: lowering of blood calcium level in patients with increased bone turn over; format: in vivo, human; settings: intravenous, intramuscular or subcutaneous injection of 0.01 to 5 mg, e.g. in 0.1 molar acetate buffer pH 4.6

| Molecule | activity in the rat [1] | plasma calcium level [2] | plasma phosphate level [2] | calcium level of the blood [3] |
| --- | --- | --- | --- | --- |
| CC[C@H](C)[C@H](NC(=O)[C@H](C)NC(=O)[C@@H](NC(=O)[C@H](CCC(N)=O)NC(=O)[C@@H]1CCCN1C(=O)[C@H](Cc1ccccc1)NC(=O)[C@@H](NC(=O)[C@H](Cc1c[nH]cn1)NC(=O)[C@H](Cc1ccccc1)NC(=O)[C@H](CCCCN)NC(=O)[C@H](CC(N)=O)NC(=O)[C@H](Cc1ccccc1)NC(=O)[C@H](CC(=O)O)NC(=O)[C@H](CCC(N)=O)NC(=O)[C@@H](NC(=O)[C@H](Cc1ccc(O)cc1)NC(=O)[C@@H](NC(=O)CNC(=O)[C@H](CC(C)C)NC(=O)[C@H](CCSC)NC(=O)[C@@H]1CSSC[C@H](N)C(=O)NCC(=O)N[C@@H](CC(N)=O)C(=O)N[C@@H](CC(C)C)C(=O)N[C@@H](CO)C(=O)N[C@@H]([C@@H](C)O)C(=O)N1)[C@@H](C)O)[C@@H](C)O)[C@@H](C)O)[C@@H](C)O)C(=O)NCC(=O)N[C@H](C(=O)NCC(=O)N[C@@H](C)C(=O)N1CCC[C@H]1C(N)=O)C(C)C [HT-C2] | 100 to 200 MRC units per mg and 100-200 MRC units per mg | – | – | – |
| Human calcitonin | – | lowers | lowers | lowers the calcium level of the blood |
